target: T1, cellular PARG (Homo sapiens, UniProt Q86W56); assay: Nuclear PAR accumulation assay (immunofluorescence high-content imaging, MMS-treated HeLa cells); type: cell-based; details: 1 hour compound then MMS 50 μg/mL for an additional hour
T1 construct: endogenous in cells; host or cells: HeLa
Summary of the method: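 HeLa cells pretreated with compound for 1 h at 37° C, then given 50 μg/mL MMS for another hour. After methanol fixation, PAR was immunostained with DAPI nuclear counterstain; per-nucleus intensity and percent PAR-positive cells were imaged at 20× (≥1,000 cells/well). IC50 from four-parameter logistic fit.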

T1 sequence (Q86W56 whole entry): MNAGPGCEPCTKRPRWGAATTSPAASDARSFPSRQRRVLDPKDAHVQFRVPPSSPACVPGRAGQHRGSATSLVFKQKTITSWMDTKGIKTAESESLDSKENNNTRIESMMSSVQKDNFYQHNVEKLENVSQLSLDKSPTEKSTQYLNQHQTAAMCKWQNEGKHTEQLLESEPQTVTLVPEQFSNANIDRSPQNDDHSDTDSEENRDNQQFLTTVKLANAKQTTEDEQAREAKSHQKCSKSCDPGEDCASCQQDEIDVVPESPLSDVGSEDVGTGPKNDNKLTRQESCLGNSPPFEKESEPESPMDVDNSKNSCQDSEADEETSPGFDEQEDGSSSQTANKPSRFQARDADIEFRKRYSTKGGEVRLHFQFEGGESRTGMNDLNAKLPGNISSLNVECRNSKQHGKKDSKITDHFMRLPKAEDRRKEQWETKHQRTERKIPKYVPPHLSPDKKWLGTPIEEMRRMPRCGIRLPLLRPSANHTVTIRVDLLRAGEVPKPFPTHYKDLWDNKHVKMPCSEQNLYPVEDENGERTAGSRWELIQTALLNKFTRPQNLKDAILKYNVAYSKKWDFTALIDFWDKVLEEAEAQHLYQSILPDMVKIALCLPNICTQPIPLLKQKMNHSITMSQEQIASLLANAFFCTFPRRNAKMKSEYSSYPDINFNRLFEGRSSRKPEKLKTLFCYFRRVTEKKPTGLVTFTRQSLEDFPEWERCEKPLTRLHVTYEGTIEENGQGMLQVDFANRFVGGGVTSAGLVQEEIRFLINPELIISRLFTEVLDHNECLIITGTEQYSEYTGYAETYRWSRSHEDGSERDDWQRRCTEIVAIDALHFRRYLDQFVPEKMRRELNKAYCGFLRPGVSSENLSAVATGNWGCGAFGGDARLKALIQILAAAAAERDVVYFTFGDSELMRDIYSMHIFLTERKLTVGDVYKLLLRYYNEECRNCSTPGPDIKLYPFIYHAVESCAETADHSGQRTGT

IC50 | Compound
100 to 1000 nM | CN1C(=O)c2cc(S(=O)(=O)NC3(C)CC3)ccc2N2C1=NCC2C#Cc1cc2cccnc2[nH]1 (centres unmarked) [Example 169, 1-((1H-pyrrolo[2,3-b]pyridin-2-yl)ethynyl)-4-methyl-N-(1-methylcyclopropyl)-5-oxo-1,2,4,5-tetrahydroimidazo[1,2-a]quinazoline-7-sulfonamide]
< 100 nM | CN1C(=O)c2cc(S(=O)(=O)NC3(C)CC3)ccc2N2C1=NCC2C#Cc1ccnc2c1OCCO2 (centres unmarked) [Example 170, 1-((2,3-dihydro-[1,4]dioxino[2,3-b]pyridin-8-yl)ethynyl)-4-methyl-N-(1-methylcyclopropyl)-5-oxo-1,2,4,5-tetrahydroimidazo[1,2-a]quinazoline-7-sulfonamide]
100 to 1000 nM | CN1C(=O)c2cc(S(=O)(=O)NC3(C)CC3)ccc2N2C1=NC[C@H]2C#Cc1cnc2ncccn12 [Example 171, (R)-1-(imidazo[1,2-a]pyrimidin-3-ylethynyl)-4-methyl-N-(1-methylcyclopropyl)-5-oxo-1,2,4,5-tetrahydroimidazo[1,2-a]quinazoline-7-sulfonamide]
< 100 nM | CN1C(=O)c2cc(S(=O)(=O)NC3(C)CC3)ccc2N2C1=NCC2C#Cc1ccc2nnn(C)c2c1 (centres unmarked) [Example 172, 4-methyl-1-((1-methyl-1H-benzo[d][1,2,3]triazol-6-yl)ethynyl)-N-(1-methylcyclopropyl)-5-oxo-1,2,4,5-tetrahydroimidazo[1,2-a]quinazoline-7-sulfonamide]
< 100 nM | C#C[C@@H]1[C@H](C)N=C2N(Cc3cnn(C)c3)C(=O)c3cc(S(=O)(=O)NC4(C)CC4)ccc3N21 [Example 173, (1R,2S)-1-ethynyl-2-methyl-4-((1-methyl-1H-pyrazol-4-yl)methyl)-N-(1-methylcyclopropyl)-5-oxo-1,2,4,5-tetrahydroimidazo[1,2-a]quinazoline-7-sulfonamide]
< 100 nM | CN1C(=O)c2cc(S(=O)(=O)NC3(C)CC3)ccc2N2C1=NC[C@H]2C#Cc1c2ccccc2nn1C [Example 174, (R)-4-methyl-1-((2-methyl-2H-indazol-3-yl)ethynyl)-N-(1-methylcyclopropyl)-5-oxo-1,2,4,5-tetrahydroimidazo[1,2-a]quinazoline-7-sulfonamide]
< 100 nM | CN1C(=O)c2cc(S(=O)(=O)NC3(C)CC3)ccc2N2C1=NCC2C#Cc1cnn(C)c(=O)c1 (centres unmarked) [Example 175, 4-methyl-1-((1-methyl-6-oxo-1,6-dihydropyridazin-4-yl)ethynyl)-N-(1-methylcyclopropyl)-5-oxo-1,2,4,5-tetrahydroimidazo[1,2-a]quinazoline-7-sulfonamide]
100 to 1000 nM | CN1C(=O)c2cc(S(=O)(=O)NC3(C)CC3)ccc2N2C1=NCC2C#Cc1ccc2nccn2n1 (centres unmarked) [Example 176, 1-(imidazo[1,2-b]pyridazin-6-ylethynyl)-4-methyl-N-(1-methylcyclopropyl)-5-oxo-1,2,4,5-tetrahydroimidazo[1,2-a]quinazoline-7-sulfonamide]
100 to 1000 nM | C[C@@H]1CN=C2N(Cc3cnn4c3CNCC4)C(=O)c3cc(S(=O)(=O)NC4(C)CC4)ccc3N21 [Example 177, (R)-1-methyl-N-(1-methylcyclopropyl)-5-oxo-4-((4,5,6,7-tetrahydropyrazolo[1,5-a]pyrazin-3-yl)methyl)-1,2,4,5-tetrahydroimidazo[1,2-a]quinazoline-7-sulfonamide]
100 to 1000 nM | CN1C(=O)c2cc(S(=O)(=O)NC3(C)CC3)ccc2N2C1=NCC2C#Cc1cnn2c1OCC1(COC1)C2 (centres unmarked) [Example 178, 1-((5′H,7′H-spiro[oxetane-3,6′-pyrazolo[5,1-b][1,3]oxazin]-3′-yl)ethynyl)-4-methyl-N-(1-methylcyclopropyl)-5-oxo-1,2,4,5-tetrahydroimidazo[1,2-a]quinazoline-7-sulfonamide]
< 100 nM | CN1C(=O)c2cc(S(=O)(=O)NC3(C)CC3)ccc2N2C1=NCC2C#Cc1cnsc1 (centres unmarked) [Example 179, 1-(isothiazol-4-ylethynyl)-4-methyl-N-(1-methylcyclopropyl)-5-oxo-1,2,4,5-tetrahydroimidazo[1,2-a]quinazoline-7-sulfonamide]
< 100 nM | CN1C(=O)c2cc(S(=O)(=O)NC3(C)CC3)ccc2N2C1=NC[C@H]2C#Cc1cnc2ccc(C#N)nn12 [Example 180, (R)-1-((6-cyanoimidazo[1,2-b]pyridazin-3-yl)ethynyl)-4-methyl-N-(1-methylcyclopropyl)-5-oxo-1,2,4,5-tetrahydroimidazo[1,2-a]quinazoline-7-sulfonamide]
< 100 nM | COc1ccc2ncc(C#C[C@@H]3CN=C4N(C)C(=O)c5cc(S(=O)(=O)NC6(C)CC6)ccc5N43)n2n1 [Example 181, (R)-1-((6-methoxyimidazo[1,2-b]pyridazin-3-yl)ethynyl)-4-methyl-N-(1-methylcyclopropyl)-5-oxo-1,2,4,5-tetrahydroimidazo[1,2-a]quinazoline-7-sulfonamide]
< 100 nM | Cc1cnn2c(C#C[C@@H]3CN=C4N(C)C(=O)c5cc(S(=O)(=O)NC6(C)CC6)ccc5N43)cnc2c1 [Example 182, (R)-4-methyl-N-(1-methylcyclopropyl)-1-((7-methylimidazo[1,2-b]pyridazin-3-yl)ethynyl)-5-oxo-1,2,4,5-tetrahydroimidazo[1,2-a]quinazoline-7-sulfonamide]
< 100 nM | Cc1ccc2ncc(C#C[C@@H]3CN=C4N(C)C(=O)c5cc(S(=O)(=O)NC6(C)CC6)ccc5N43)n2n1 [Example 183, (R)-4-methyl-N-(1-methylcyclopropyl)-1-((6-methylimidazo[1,2-b]pyridazin-3-yl)ethynyl)-5-oxo-1,2,4,5-tetrahydroimidazo[1,2-a]quinazoline-7-sulfonamide]
< 100 nM | [2H]C([2H])([2H])N1C(=O)c2cc(S(=O)(=O)NC3(C)CC3)ccc2N2C1=NCC2C#Cc1cnc2cccnn12 (centres unmarked) [Example 184, 1-(imidazo[1,2-b]pyridazin-3-ylethynyl)-4-(methyl-d3)-N-(1-methylcyclopropyl)-5-oxo-1,2,4,5-tetrahydroimidazo[1,2-a]quinazoline-7-sulfonamide]
< 100 nM | CN1C(=O)c2cc(S(=O)(=O)NC3(C)CC3)ccc2N2C1=NC[C@H]2C#Cc1ccnn1C [Example 185, (R)-4-methyl-1-((1-methyl-1H-pyrazol-5-yl)ethynyl)-N-(1-methylcyclopropyl)-5-oxo-1,2,4,5-tetrahydroimidazo[1,2-a]quinazoline-7-sulfonamide]
< 100 nM | CCN1C(=O)c2cc(S(=O)(=O)NC3(C)CC3)ccc2N2C1=NC[C@H]2C#CC1(N(C)C)CC1 [Example 186, (R)-1-((1-(dimethylamino)cyclopropyl)ethynyl)-4-ethyl-N-(1-methylcyclopropyl)-5-oxo-1,2,4,5-tetrahydroimidazo[1,2-a]quinazoline-7-sulfonamide]
< 100 nM | CCN1C(=O)c2cc(S(=O)(=O)NC3(C)CC3)ccc2N2C1=NC[C@H]2C#Cc1cnn(C)n1 [Example 187, (R)-4-ethyl-I-((2-methyl-2H-1,2,3-triazol-4-yl)ethynyl)-N-(1-methylcyclopropyl)-5-oxo-1,2,4,5-tetrahydroimidazo[1,2-a]quinazoline-7-sulfonamide]
< 100 nM | CCN1C(=O)c2cc(S(=O)(=O)NC3(C)CC3)ccc2N2C1=NC[C@H]2C#CC1CC1 [Example 188, (R)-1-(cyclopropylethynyl)-4-ethyl-N-(1-methylcyclopropyl)-5-oxo-1,2,4,5-tetrahydroimidazo[1,2-a]quinazoline-7-sulfonamide]
< 100 nM | CCN1C(=O)c2cc(S(=O)(=O)NC3(C)CC3)ccc2N2C1=NC[C@H]2C#Cc1cnc2cccnn12 [Example 189, (R)-4-ethyl-1-(imidazo[1,2-b]pyridazin-3-ylethynyl)-N-(1-methylcyclopropyl)-5-oxo-1,2,4,5-tetrahydroimidazo[1,2-a]quinazoline-7-sulfonamide]
< 100 nM | CCN1C(=O)c2cc(S(=O)(=O)NC3(C)CC3)ccc2N2C1=NC[C@H]2C#Cc1cnn2cccnc12 [Example 190, (R)-4-ethyl-N-(1-methylcyclopropyl)-5-oxo-1-(pyrazolo[1,5-a]pyrimidin-3-ylethynyl)-1,2,4,5-tetrahydroimidazo[1,2-a]quinazoline-7-sulfonamide]
< 100 nM | CCN1C(=O)c2cc(S(=O)(=O)NC3(C)CC3)ccc2N2C1=NC[C@H]2C#Cc1cnc2cc(CN(C)C)cnn12 [Example 191, (R)-1-((7-((dimethylamino)methyl)imidazo[1,2-b]pyridazin-3-yl)ethynyl)-4-ethyl-N-(1-methylcyclopropyl)-5-oxo-1,2,4,5-tetrahydroimidazo[1,2-a]quinazoline-7-sulfonamide]
< 100 nM | Cc1cc(C#C[C@@H]2CN=C3N(Cc4cnn(C)c4)C(=O)c4cc(S(=O)(=O)NC5(C)CC5)ccc4N32)n(C)n1 [Example 192, (R)-1-((1,3-dimethyl-1H-pyrazol-5-yl)ethynyl)-4-((1-methyl-1H-pyrazol-4-yl)methyl)-N-(1-methylcyclopropyl)-5-oxo-1,2,4,5-tetrahydroimidazo[1,2-a]quinazoline-7-sulfonamide]
< 100 nM | Cn1cc(CN2C(=O)c3cc(S(=O)(=O)NC4(C)CC4)ccc3N3C2=NC[C@H]3C#Cc2ccnn2C2CC2)cn1 [Example 193, (R)-1-((1-cyclopropyl-1H-pyrazol-5-yl)ethynyl)-4-((1-methyl-1H-pyrazol-4-yl)methyl)-N-(1-methylcyclopropyl)-5-oxo-1,2,4,5-tetrahydroimidazo[1,2-a]quinazoline-7-sulfonamide]
< 100 nM | Cc1cc(C#C[C@@H]2CN=C3N(Cc4cnn(C)c4)C(=O)c4cc(S(=O)(=O)NC5(C)CC5)ccc4N32)sn1 [Example 194, (R)-4-((1-methyl-1H-pyrazol-4-yl)methyl)-N-(1-methylcyclopropyl)-1-((3-methylisothiazol-5-yl)ethynyl)-5-oxo-1,2,4,5-tetrahydroimidazo[1,2-a]quinazoline-7-sulfonamide]
